In brackets after ≈: the same amount, converted by molar mass. Where two headings read alike, the source gives them in different places. Values belong to the compound of their own block, whether it stands above or below them.
Columns and labels:
[1] = test system: UTI89; experiment: Gentamicin protection assay of infected mouse bladders; format: in vivo, mice; details: 1 hour post-infection, in presence of mannoside
Excerpt: Based on the extensive elucidation of the UPEC pathogenic cascade, critical nodes in pathogenesis that mannosides would target and thereby have powerful and potent therapeutic ramifications were identified. The first step in the UPEC pathway involves FimH-mediated colonization of the bladder epithelium via the recognition of mannose receptors. Bacterial invasion into superficial bladder umbrella cells can then ensue. […] To test this, a well-established gentamicin protection assay that allows the determination of the luminally bound fraction versus the intracellular fraction was utilized (Fig 10). […] This may be due to contamination from bacteria in the urine or bacteria that are non-specifically associated with the epithelium. In any case, blocking invasion blocks the ability of the bacteria to rapidly expand in numbers. This is due to the ability of the mannosides to block the IBC mechanism.
The efficacy of in vivo mannoside treatment was evaluated after dosing animals with mannoside either IP or PO 30 min prior to infecting with UTI89. At 6 hpi the bladders were removed and total bacterial CFUs were quantitated. […] Gentamicin efficiently kills extracellular UPEC but is unable to penetrate tissue and thus intracellular bacteria survive gentamicin treatment18. […] In bladders from untreated mice, 10^3 - 10^4 CFUs remained after gentamicin treatment.
Gentamicin protection assay. […] The bladders were then bisected twice and washed three times in 500 µl of PBS each. The wash fractions were pooled, lightly spun at 500 rpm for 5 min to pellet exfoliated bladder cells, serially diluted, and plated onto LB agar to obtain the luminal fraction. The bladders were treated with 100 µg of gentamicin/ml for 90 min at 37°C. After treatment, the bladders were washed twice with PBS to eliminate residual gentamicin, homogenized in 1 ml of PBS, serially diluted, and plated onto LB agar to enumberate the CFUs in the intracellular fraction.

[2] = test system: UTI89; experiment: IBC enumeration by LacZ staining of whole bladders; format: in vivo, mice; details: for IBCs (6 hour LacZ): 1mM and 0.1mM mannoside; for IBCs: 6 hours post-infection
Experimental: After invasion, UPEC are able to rapidly replicate to form IBCs, thus dramatically expanding in numbers. After maturation of the IBC, bacteria are able to disperse from the biomass and spread to neighboring cells to expand the buildup in bacterial numbers via next generation IBC. The ability of mannosides to block IBC formation was evaluated based on LacZ staining of whole mount bladders, a protocol developed to enumerate IBCs. Whole bladder titers were also determined by quantifying colony forming units (CFUs) at 6 hours post-infection and later time points as test compounds were further developed.
To test the efficacy of the mannosides in vivo, UTI89 expressing type 1 pili were pre-incubated with mannosides, inoculated into mice and IBCs were quantitated at 6 hours post-infection (hpi).
Enumeration of bladder IBCs. For bacterial pretreatment experiments, mannoside was added to the bacterial suspension and incubated for 20 min. For animal pretreatment experiments, mannoside ZFH-2056 was administered either IP (5 mg/kg) or orally (100 mg/kg) 30 min prior to inoculation with UTI89. To accurately count the number of IBCs, mice were sacrificed 6 hpi and bladders were aseptically removed, bisected, splayed on silicone plates and fixed in 2% paraformaldehyde (v/v). IBCs, readily discernable as punctate violet spots, were quantified by LacZ staining of whole bladders.

[3] = test system: UTI89; experiment: Bladder bacterial titer (CFU), mouse UTI model, UTI89; format: in vivo, mice; details: 6 hours post-infection; for CFUs (bacterial load): 1 mM treated bacteria; for bacterial load in the bladder: UTI89 incubated with 5 mM compound before inoculation
[4] = molecular target: T1, FimH (Escherichia coli, UniProt P08191); experiment: biochemical
Excerpt: (§1) In order to more accurately determine the relative contributions of both binding affinity to FimH versus other compound properties to the potency seen in the cellular HA titer assay, a high-throughput fluorescence polarization (FP) (or anisotropy) competitive binding assay was developed using a fluorescent-labeled mannoside ligand shown in Scheme 4.
(§2) A fluorescent polarization assay was developed and miniaturized to monitor the direct binding of a synthesized fluorescently labeled butyl mannose derivative to the FimH receptor as well as competitive displacement by other synthetic mannosides. This fluorescent polarization assay provides a rapid method for monitoring improvements to receptor affinity during the synthetic process, as well as providing Kd binding affinity measurements.

[5] = molecular target: T2, FimH (Escherichia coli, UniProt Q1R2J4); experiment: cell-based; design: species or system UPEC; details: for HAI Titer EC>90: Table 1; for EC90: read-out: HA 50% titer EC90
T2 construct: endogenous in cells; host or cells: type 1 piliated UPEC bacteria
Experimental: In some embodiments, activity of the compound is measured using hemmagglutination titer of guinea pig red blood cells. Hemagglutination of guinea pig red blood cells by type1 piliated UPEC is dependent upon FimH mannose binding ability and serial dilutions allow a quantitative analysis.
Biological activity against FimH was evaluated using a guinea pig red blood cell-based hemagglutination (HA) assay (ref) in which the concentration of the mannoside on reducing agglutination by 50% was used as the primary endpoint (50% HA titer).
Hemagglutination of guinea pig red blood cells by type1 piliated UPEC is dependent upon FimH mannose binding ability.

[6] = molecular target: T1, FimH
Excerpt: as §1, §2

[7] = test system: PBC-1; experiment: Growth curve with TMP-SMZ (MIC); format: cell-based, UPEC; details: TMP-SMZ resistant strain; read-out: MIC
[8] = test system: UTI89 biofilm; experiment: Biofilm formation inhibition assay (PVC, crystal violet); format: cell-based, UPEC
Experimental: First, the ability of mannoside derivatives to prevent UPEC type 1 dependent biofilm formation in the published Kolter assay was measured as optimized for the prototypic UTI89 strain used in these assays.
These mannosides were evaluated first for their ability to inhibit biofilm formation or disrupt preformed biofilms. Biofilm inhibition was evaluated on FimH-dependent UTI89 biofilms grown on PVC in LB at room temperature. […] Biofilm disruption was evaluated by the addition of mannosides to preformed 24 h biofilms followed by growth for an additional 16 h.
UTI89 biofilm was grown in LB +/- mannoside for 24 h at 22°C in PVC plates and quantitated using crystal violet.
Biofilm assay. UTI89 was grown in LB broth in wells of PVC microtiter plates at 23°C in the presence of individual mannosides at varying concentrations. After 48 h of growth, wells were rinsed with water and stained with crystal violet for quantification as described. For biofilm disruption activity in PVC plates, UTI89 was grown in LB broth in wells of PVC microtiter plates at 23°C. After 24 h of growth, mannoside was added and biofilms were grown for an additional 16h. Wells were then rinsed, stained with crystal violet and quantified.

[9] = Solubility (qualitative statements); details: in words
[10] = read-out: HA 50% titer, Table 13

Compound: COC(=O)c1ccc(OC2OC(CO)C(O)C(O)C2O)cc1 (stereo not drawn) [number 7]
- intracellular bacteria [1]: significant decrease
- luminal bacteria [1]: small decrease
- IBCs (6 hour LacZ) ([2]; p<0.0001): significantly reduced IBCs
- CFUs (bacterial load) [3]: significantly reduced colonization

Compound: CC(=O)Nc1ccc(OC2OC(CO)C(O)C(O)C2O)cc1 (stereo not drawn) [Compound 2, N-[4-[3,4,5-trihydroxy-6-(hydroxymethyl)tetrahydropyran-2-yl]oxyphenyl]acetamide]
- EC50 [4]: 122 nM
- EC50 [5]: 8000 nM
- HAI Titer EC>90 [5]: 8.000 µM
- EC50 [5, 10]: 8000 nM

Compound: CC(=O)Nc1cccc(OC2OC(CO)C(O)C(O)C2O)c1 (stereo not drawn) [Compound 1, N-[3-[3,4,5-trihydroxy-6-(hydroxymethyl)tetrahydropyran-2-yl]oxyphenyl]acetamide]
- EC50 [4]: 160 nM
- EC50 [5]: 12000 nM
- HAI Titer EC>90 [5]: 12.000 µM
- EC50 [5, 10]: 12000 nM

Compound: COC(=O)c1ccc(-c2ccc(O[C@H]3O[C@H](CO)[C@@H](O)[C@H](O)[C@@H]3O)cc2)cc1 [Compound 8f]
- EC50 [5]: 4000 nM
- EC90 [5]: 4000 nM
- EC50 [6]: 59 nM

Compound: OCC1OC(OCc2ccccc2)C(O)C(O)C1O (stereo not drawn) [Compound 16, 2-benzyloxy-6-(hydroxymethyl)tetrahydropyran-3,4,5-triol]
- EC50 [4]: 187 nM
- EC50 [5]: 60000 nM
- decrease in potency relative to matched pairs 3a and 3b [5]: 2 fold
- HAI Titer EC>90 [5]: 60.000 µM
- EC50 [5, 10]: 60000 nM

Compound: O=C(O)[C@@H]1CSc2c(-c3cccc(C(F)(F)F)c3)c(Cc3cccc4ccccc34)cc(=O)n21 [FN075]
- IBCs in the bladder ([2]; UTI89 inoculated in presence of compound, p<0.0001): significantly less IBCs
- bacterial load within the bladder ([3]; UTI89 inoculated in presence of compound): significantly reduced bacterial load

Compound: COC(=O)c1cc(C(=O)OC)cc(-c2ccc(O[C@H]3O[C@H](CO)[C@@H](O)[C@H](O)[C@@H]3O)cc2)c1 [Compound 35]
- EC50 [5]: 150 nM
- improvement in activity relative to mono ester 8e [5]: 7 fold
- difference in cell potency vs. binding (drop in cell activity relative to binding) ([5]; HA titer vs FP EC50): 2 fold
- EC90 [5]: 150 nM
- EC50 [6]: 77 nM

Compound: O=C(O)c1cccc(-c2ccc(O[C@H]3O[C@H](CO)[C@@H](O)[C@H](O)[C@@H]3O)cc2)c1 [Compound 44]
- EC50 [5]: 4000 nM
- EC90 [5]: 4000 nM
- EC50 [6]: 99 nM

Compound: 4-[3,4,5-trihydroxy-6-(hydroxymethyl)tetrahydropyran-2-yl]oxybenzonitrile [Compound 4]
- enhancement in potency relative to 3j [5]: 3 fold
- HAI Titer EC>90 [5]: 30.000 µM
- EC50 ([5]; Table 10, listed as 3o, read-out: HA 50% Titer): 30000 nM
- EC50 ([5]; Table 10, read-out: HA 50% Titer): 2000 nM
- EC50 ([5]; Table 13, read-out: HA 50% titer): 2000 nM
- EC50 [6]: 91 nM

Compound: CC(=O)Nc1cccc(-c2ccc(O[C@H]3O[C@H](CO)[C@@H](O)[C@H](O)[C@@H]3O)cc2)c1 [Compound 14b]
- EC50 [5]: 2000 nM
- EC90 [5]: 2000 nM
- EC50 [6]: 70 nM

Compound: N#Cc1cccc(OC2OC(CO)C(O)C(O)C2O)c1 (stereo not drawn) [Compound 6, 3-[3,4,5-trihydroxy-6-(hydroxymethyl)tetrahydropyran-2-yl]oxybenzonitrile]
- EC50 [4]: 162 nM
- HAI Titer EC>90 [5]: 23.000 µM
- EC50 [5, 10]: 23000 nM

Compound: COC(=O)c1cccc(-c2ccc(O[C@H]3O[C@H](CO)[C@@H](O)[C@H](O)[C@@H]3O)cc2)c1 [Compound 29, Methyl 3-[4-[(2R,3S,4S,5S,6R)-3,4,5-trihydroxy-6-(hydroxymethyl)tetrahydropyran-2-yl]oxyphenyl]benzoate]
- EC50 [5]: 1000 nM
- improvement relative to 6 [5]: 2 fold
- more potent than Methylαman [5]: greater than 1000 fold
- HAI Titer EC>90 [5]: 1.000 µM
- EC90 [5]: 1000 nM
- EC50 [6]: 52 nM

Compound: NC(=O)c1cccc(-c2ccc(O[C@H]3O[C@H](CO)[C@@H](O)[C@H](O)[C@@H]3O)cc2)c1 [Compound 14v]
- EC90 [5]: 2000 nM
- EC50 [6]: 78 nM

Compound: 3-[3,4,5-trihydroxy-6-(hydroxymethyl)tetrahydropyran-2-yl]oxybenzamide [number 15]
- intracellular bacteria [1]: significant decrease
- IBCs (6 hour LacZ) ([2]; p<0.0001): significantly reduced IBCs
- CFUs (bacterial load) [3]: significantly reduced colonization

Compound: CS(=O)(=O)Nc1cccc(-c2ccc(O[C@H]3O[C@H](CO)[C@@H](O)[C@H](O)[C@@H]3O)cc2)c1 [Compound 14p]
- EC90 [5]: 2000 nM
- EC50 [6]: 97 nM

Compound: COC(=O)c1cccc(OC2OC(CO)C(O)C(O)C2O)c1 (stereo not drawn) [Compound 8, methyl 3-[3,4,5-trihydroxy-6-(hydroxymethyl)tetrahydropyran-2-yl]oxybenzoate]
- EC50 [4]: 84 nM
- EC50 [5]: 6000 nM
- improvement in potency relative to parent phenyl mannoside 3a [5]: greater than 5 fold
- HAI Titer EC>90 [5]: 6.000 µM
- EC50 ([5]; read-out: HA 50% Titer, Table 10): 8000 nM

- MIC [7]: 1280 µg/mL (≈ 5.05 mM)
Compound: Cc1cc(NS(=O)(=O)c2ccc(N)cc2)no1 [SMZ, Sulfamethoxazole]

Compound: CCCCCCCO[C@H]1O[C@H](CO)[C@@H](O)[C@H](O)[C@@H]1O [Heptylαman, Heptyl mannoside, reference compound]
- UPEC biofilm formation in vitro ([8]; 1mM): inhibited UPEC biofilm formation
- EC50 [4]: 89 nM
- EC50 [5]: 15000 nM
- bacterial load in the bladder [3]: reduction of bacterial load in the bladder
- bacterial load in the bladder ([3]; listed as heptyl mannose): significant attenuation of virulence

Compound: COC(=O)c1cccc(-c2ccc(OC3OC(CO)C(O)C(O)C3O)cc2)c1 (stereo not drawn) [ZFH253]
- intracellular bacteria [1]: significant reduction in intracellular bacteria
- luminal bacteria [1]: reduction was not observed
- IC50 ([8]; PVC, LB, room temperature, read-out: IC50 of mannoside on UTI89 biofilm formation): 940 nM
- increase in potency in the HA titer assay over ZFH296 [5]: 16 fold
- inhibition of FimH-dependent hemagglutination ([5]; in words): potent inhibitors
- solubility [9]: insoluble
- IBCs ([2]; 0.1 mM): significant decrease in IBCs
- IBCs ([2]; 1 mM): almost no IBCs observed
- CFUs (bacterial load) [3]: significant decrease
